Patent US11912701B2, “Protein kinase inhibitors for promoting liver regeneration or reducing or preventing hepatocyte death” (HEPAREGENIX GMBH, priority 2018, dated 2024)

Assays:
[1] = target: JNK1 (Homo sapiens, UniProt P45983); assay: KINOMEscan competition binding assay, JNK1; parameters: M1/Q384; host or cells: HEK-293; conditions: ratio PoC (off-target)/PoC (MKK4)
Experimental: (§1) The assay was performed by combining three components: DNA-tagged kinase; immobilized ligand; and a test compound. The ability of the test compound to compete with the immobilized ligand was measured via quantitative PCR of the DNA tag. The technology is described in detail in Fabian, M. A. et al. A small molecule-kinase interaction map for clinical kinase inhibitors. Nat. […] Nat.
(§2) For investigation of the affinity to MKK4, BRaf, MKK7 and JNK1, the kinases were produced in HEK-293 cells and subsequently tagged with DNA for qPCR detection. […] The liganded beads were blocked with excess biotin and washed with blocking buffer (SEABLOCK™ (Pierce), 1% BSA, 0.05% TWEEN®20, 1 mM DTT) to remove unbound ligand and to reduce nonspecific binding. […] All reactions were performed in polystyrene 96-well plates in a final volume of 0.135 mL. […] The kinase concentration in the eluates was measured by qPCR.
(§3) The test compounds were provided as 10 mM stock solutions. The test solutions at indicated final concentrations were prepared at DiscoverX.
(§4) Potency of representative examples against the protein kinases MKK4, BRaf, MKK7 and JNK1 expressed as residual percent of control binding (PoC), was determined at a concentration of 100 nM. The determined potencies are categorized as follows:
(§5) The binding selectivity of representative examples against the protein kinases BRaf, MKK7 and JNK1, altogether denominated as “off-targets” is determined by the ratios of PoC (off-target)/PoC (MKK4).

[2] = target: T1, BRaf (Homo sapiens, UniProt P15056); assay: KINOMEscan competition binding assay, BRaf; conditions: ratio PoC (off-target)/PoC (MKK4)
T1 construct: purchased ProQinase GmbH, Freiburg, Germany (33PanQinase Assay Service)
Experimental: as §1, §2, §3, §4, §5

[3] = target: T2, MKK4 (Homo sapiens, UniProt P45985); assay: KINOMEscan competition binding assay, MKK4; conditions: residual percent of control binding (PoC) at 100 nM
T2 construct: S84/D399; host or cells: HEK-293
T2 sequence (P45985 84-399): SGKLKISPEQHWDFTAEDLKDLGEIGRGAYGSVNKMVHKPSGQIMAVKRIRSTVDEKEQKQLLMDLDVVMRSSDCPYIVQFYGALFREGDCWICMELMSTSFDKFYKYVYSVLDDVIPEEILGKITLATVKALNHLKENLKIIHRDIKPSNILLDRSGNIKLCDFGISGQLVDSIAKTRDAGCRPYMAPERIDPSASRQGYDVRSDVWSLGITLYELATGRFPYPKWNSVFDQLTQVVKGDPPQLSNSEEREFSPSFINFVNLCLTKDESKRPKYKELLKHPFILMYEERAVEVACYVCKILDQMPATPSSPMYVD
Experimental: as §1, §2, §3
Potency of representative examples against the protein kinases MKK4, BRaf, MKK7 and JNK1 expressed as residual percent of control binding (PoC), was determined at a concentration of 100 nM. The determined potencies are categorized as follows: […]

[4] = target: T3, MKK7 (Homo sapiens, UniProt O14733); assay: KINOMEscan competition binding assay, MKK7; parameters: M1/R419; host or cells: HEK-293; conditions: ratio PoC (off-target)/PoC (MKK4)
T3 sequence (O14733 1-419): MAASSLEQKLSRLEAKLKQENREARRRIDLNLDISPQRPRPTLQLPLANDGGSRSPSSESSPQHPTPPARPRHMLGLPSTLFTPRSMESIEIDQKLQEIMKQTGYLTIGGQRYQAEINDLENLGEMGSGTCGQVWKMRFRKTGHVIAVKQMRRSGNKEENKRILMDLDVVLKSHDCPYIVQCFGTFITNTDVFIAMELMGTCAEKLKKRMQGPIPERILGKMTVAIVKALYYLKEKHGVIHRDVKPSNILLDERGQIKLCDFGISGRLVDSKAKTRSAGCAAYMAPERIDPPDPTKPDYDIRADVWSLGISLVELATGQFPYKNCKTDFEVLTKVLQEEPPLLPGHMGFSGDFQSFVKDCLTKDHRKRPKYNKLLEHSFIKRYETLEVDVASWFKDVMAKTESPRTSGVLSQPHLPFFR
Experimental: as §1, §2, §3, §4, §5

[5] = target: T4, MKK4 (Homo sapiens, UniProt P45985); assay: 33PanQinase enzyme assay, MKK4; assay type: biochemical; conditions: for remaining activity at 0.1 µM: single concentration 100 nM, read-out: Potency MKK4 (residual activity, assay at single concentration)
T4 construct: purchased ProQinase GmbH, Freiburg, Germany (33PanQinase Assay Service)
T4 sequence (P45985 1-399): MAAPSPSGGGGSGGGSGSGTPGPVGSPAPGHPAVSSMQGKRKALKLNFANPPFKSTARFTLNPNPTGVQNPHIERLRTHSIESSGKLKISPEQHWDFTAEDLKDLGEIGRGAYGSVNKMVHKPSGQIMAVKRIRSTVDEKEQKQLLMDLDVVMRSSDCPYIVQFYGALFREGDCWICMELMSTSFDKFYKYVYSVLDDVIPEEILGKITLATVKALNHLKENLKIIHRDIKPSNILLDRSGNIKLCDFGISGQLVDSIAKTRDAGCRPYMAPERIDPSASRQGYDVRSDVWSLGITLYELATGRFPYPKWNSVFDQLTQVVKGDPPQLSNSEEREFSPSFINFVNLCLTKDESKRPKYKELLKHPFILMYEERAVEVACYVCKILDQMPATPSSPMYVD
Outline: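 Radiometric 33PanQinase assay: kinase, substrate, ATP and compound in standard buffer, 60 min at 30 °C; 33Pi incorporation read by scintillation counting.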

Chain of JNK1 (P45983 1-384 isoform P45983-2): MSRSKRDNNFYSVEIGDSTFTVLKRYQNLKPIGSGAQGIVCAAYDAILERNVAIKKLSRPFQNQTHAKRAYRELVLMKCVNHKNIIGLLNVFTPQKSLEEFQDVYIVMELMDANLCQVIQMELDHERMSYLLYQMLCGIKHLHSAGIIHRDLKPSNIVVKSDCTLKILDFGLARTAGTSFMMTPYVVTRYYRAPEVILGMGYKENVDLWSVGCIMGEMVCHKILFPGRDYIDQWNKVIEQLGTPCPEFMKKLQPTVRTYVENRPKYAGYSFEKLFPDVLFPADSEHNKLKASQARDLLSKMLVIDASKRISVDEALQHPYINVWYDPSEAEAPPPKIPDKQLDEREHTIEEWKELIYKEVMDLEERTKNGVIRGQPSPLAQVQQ
T1 sequence (P15056 whole entry, species assumed): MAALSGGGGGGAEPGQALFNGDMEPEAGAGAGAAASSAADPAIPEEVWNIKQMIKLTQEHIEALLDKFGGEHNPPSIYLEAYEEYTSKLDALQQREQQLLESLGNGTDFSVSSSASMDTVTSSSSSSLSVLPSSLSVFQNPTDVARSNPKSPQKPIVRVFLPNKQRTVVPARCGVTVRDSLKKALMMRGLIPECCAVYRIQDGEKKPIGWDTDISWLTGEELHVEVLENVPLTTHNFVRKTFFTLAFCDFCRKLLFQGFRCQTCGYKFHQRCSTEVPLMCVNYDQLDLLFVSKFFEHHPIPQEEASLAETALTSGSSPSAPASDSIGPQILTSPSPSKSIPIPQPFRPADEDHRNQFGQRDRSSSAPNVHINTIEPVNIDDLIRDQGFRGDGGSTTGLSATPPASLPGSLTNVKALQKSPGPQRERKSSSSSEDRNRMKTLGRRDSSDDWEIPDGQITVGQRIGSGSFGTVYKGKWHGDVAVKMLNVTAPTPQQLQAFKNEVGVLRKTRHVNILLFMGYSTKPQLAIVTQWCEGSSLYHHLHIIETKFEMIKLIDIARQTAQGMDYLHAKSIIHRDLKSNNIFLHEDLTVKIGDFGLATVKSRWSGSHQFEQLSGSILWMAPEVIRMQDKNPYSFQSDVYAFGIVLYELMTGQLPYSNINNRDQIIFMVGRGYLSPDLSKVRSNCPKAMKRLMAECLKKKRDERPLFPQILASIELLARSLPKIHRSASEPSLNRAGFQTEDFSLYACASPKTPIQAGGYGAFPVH

Row | selectivity based on % Ctrl @100 nM vs. JNK1 [1] | selectivity based on % Ctrl @100 nM vs. Braf [2] | MKK4 [% Ctrl @ 100 nM [3] | selectivity based on % Ctrl @100 nM vs. MKK7 [4] | remaining activity at 0.1 µM [5] | IC50 ([5]; assay 'IC50', read-out: Potency MKK4 (IC50)) | SMILES
1 | + (10 ≥ ratio > 3) | + (10 ≥ ratio > 3) | + (3 ≤ PoC < 30) | + (10 ≥ ratio > 3) | 70 to 90% |  | CCCS(=O)(=O)Nc1c(Cl)ccc(C(=O)c2c[nH]c3ncc(-c4ccc(Cl)cc4)cc23)c1F [Example 2d]
2 | ◯ (3 ≥ Ratio) | ◯ (3 ≥ Ratio) | ◯ (30 ≤ PoC) | ◯ (3 ≥ Ratio) | > 90% |  | O=C(c1c(F)ccc(NS(=O)(=O)CCCO)c1F)c1c[nH]c2ncc(-c3ccc(Cl)cc3)cc12 [Example 67, N-(3-(5-(4-chlorophenyl)-1H-pyrrolo[2,3-b]pyridine-3-carbonyl)-2,4-difluorophenyl)-3-hydroxypropane-1-sulfonamide]
3 | ◯ (3 ≥ Ratio) | ◯ (3 ≥ Ratio) | ◯ (30 ≤ PoC) | ◯ (3 ≥ Ratio) | 50 to 70% |  | CCCS(=O)(=O)Nc1cccc(C(=O)c2c[nH]c3ncc(-c4ccc(Cl)cc4)cc23)c1C#N [Example 63, N-(3-(5-(4-chlorophenyl)-1H-pyrrolo[2,3-b]pyridine-3-carbonyl)-2-cyanophenyl)propane-1-sulfonamide]
4 | ++ (100 ≥ ratio > 10) | ++ (100 ≥ ratio > 10) | ++ (1 ≤ PoC < 3) | ++ (100 ≥ ratio > 10) | 70 to 90% |  | O=C(c1c(F)ccc(NS(=O)(=O)Cc2ccccc2)c1F)c1c[nH]c2ncc(-c3ccc(OCC(O)CO)cc3Cl)cc12 (stereo not drawn) [Example 41, N-(3-(5-(2-chloro-4-(2,3-dihydroxypropoxy)phenyl)-1H-pyrrolo[2,3-b]pyridine-3-carbonyl)-2,4-difluorophenyl)-1-phenylmethane-sulfonamide]
5 | + (10 ≥ ratio > 3) | ◯ (3 ≥ Ratio) | + (3 ≤ PoC < 30) | + (10 ≥ ratio > 3) | 70 to 90% |  | CCCS(=O)(=O)Nc1ccc(F)c(C(=O)c2c[nH]c3ncc(-c4cccc(Cl)c4)cc23)c1F [Example 32, N-(3-(5-(3-chlorophenyl)-1H-pyrrolo[2,3-b]pyridine-3-carbonyl)-2,4-difluorophenyl)propane-1-sulfonamide]
6 | ++ (100 ≥ ratio > 10) | ◯ (3 ≥ Ratio) | + (3 ≤ PoC < 30) | ++ (100 ≥ ratio > 10) | 70 to 90% |  | CCCS(=O)(=O)Nc1ccc(F)c(C(=O)c2c[nH]c3ncc(-c4ccc5ccoc5c4)cc23)c1F [Example 52]
7 | ++ (100 ≥ ratio > 10) | ++ (100 ≥ ratio > 10) | + (3 ≤ PoC < 30) | ++ (100 ≥ ratio > 10) | 70 to 90% |  | CCCS(=O)(=O)Nc1ccc(F)c(C(=O)c2c[nH]c3ncc(-c4ccccc4F)cc23)c1F [Example 34, N-(2,4-difluoro-3-(5-(2-fluorophenyl)-1H-pyrrolo[2,3-b]pyridine-3-carbonyl)phenyl)propane-1-sulfonamide]
8 | ◯ (3 ≥ Ratio) | ◯ (3 ≥ Ratio) | + (3 ≤ PoC < 30) | + (10 ≥ ratio > 3) | 70 to 90% |  | CCCS(=O)(=O)Nc1ccc(F)c(C(=O)c2c[nH]c3ncc(-c4ccc5ccsc5c4)cc23)c1F [Example 51]
9 | ◯ (3 ≥ Ratio) | ◯ (3 ≥ Ratio) | ◯ (30 ≤ PoC) | ◯ (3 ≥ Ratio) | > 90% |  | CCCS(=O)(=O)Nc1ccc(C#N)c(C(=O)c2c[nH]c3ncc(-c4ccc(Cl)cc4)cc23)c1C#N [Example 62, N-(3-(5-(4-chlorophenyl)-1H-pyrrolo[2,3-b]pyridine-3-carbonyl)-2,4-dicyanophenyl)propane-1-sulfonamide]
10 | ++ (100 ≥ ratio > 10) | + (10 ≥ ratio > 3) | ++ (1 ≤ PoC < 3) | ++ (100 ≥ ratio > 10) |  | 1 to 10 µM | CCCS(=O)(=O)Nc1ccc(F)c(C(=O)c2c[nH]c3ncc(-c4ccccn4)cc23)c1F [Example 47]
11 | ++ (100 ≥ ratio > 10) | ++ (100 ≥ ratio > 10) | + (3 ≤ PoC < 30) | ++ (100 ≥ ratio > 10) | 70 to 90% |  | CCCS(=O)(=O)Nc1ccc(F)c(C(=O)c2c[nH]c3ncc(-c4ccc(F)cc4F)cc23)c1F [Example 33, N-(3-(5N-(2,4-difluorophenyl)-1H-pyrrolo[2,3-b]pyridine-3-carbonyl)-2,4-difluorophenyl)propane-1-sulfonamide]
12 | ◯ (3 ≥ Ratio) | ◯ (3 ≥ Ratio) | ◯ (30 ≤ PoC) | ◯ (3 ≥ Ratio) | 70 to 90% |  | CCCS(=O)(=O)Nc1ccc(Br)c(C(=O)c2c[nH]c3ncc(-c4ccc(Cl)cc4)cc23)c1Br [Example 2b, N-(2,4-dibromo-3-(5-(4-chlorophenyl)-1H-pyrrolo[2,3-b]pyridine-3-carbonyl)phenyl)propane-1-sulfonamide]
